Laboratory results taken from patent publication US10610520B2, “Heterocyclic compound” (Takeda Pharmaceutical Company Limited, priority 2016, dated 2020).

Molecular target: T1, His-hMAGL (recombinant polyhistidine tagged human MAGL protein) (Homo sapiens, UniProt Q99685)
T1 construct: made in house; host or cells: E. coli BL21(DE3)
T1 sequence (Q99685 1-303): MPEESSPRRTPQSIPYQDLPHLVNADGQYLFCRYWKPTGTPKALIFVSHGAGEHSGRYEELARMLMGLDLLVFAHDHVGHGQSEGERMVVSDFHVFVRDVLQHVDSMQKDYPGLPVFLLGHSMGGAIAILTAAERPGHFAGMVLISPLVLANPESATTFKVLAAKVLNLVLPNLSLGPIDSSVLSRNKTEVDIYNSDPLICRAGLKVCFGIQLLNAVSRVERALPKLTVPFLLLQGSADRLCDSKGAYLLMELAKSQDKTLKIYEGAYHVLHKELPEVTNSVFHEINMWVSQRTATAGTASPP
Test: Measurement of MAGL inhibitory activity (arachidonic acid production from 2-arachidonylglycerol, RapidFire-mass spectrometry)
Type: biochemical
Details: MAGL inhibitory rate, test compound 10 μM, 60 min preincubation, 2-arachidonylglycerol substrate
How it was run: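 Arachidonic acid formed was quantified by online solid-phase extraction and triple-quadrupole MS in negative SRM mode against a d8 internal standard. Reaction: recombinant His-hMAGL (7.5 ng/mL, pH 7.5 Tris buffer with Triton X-100 and BSA) plus 2-AG (5 μL of 150 μM stock) for 10 min at room temperature, quenched with 2% formic acid. Percent inhibition corrected for enzyme-free background.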

inhibition at 10 µM [%] | SMILES
96 | O=C1CCC2(CN(C(=O)c3ccc(-c4ccc(C(F)(F)F)cc4Cl)cc3)C2)N1 [Example 47, 2-((2′-chloro-4′-(trifluoromethyl)biphenyl-4-yl)carbonyl)-2,5-diazaspiro[3.4]octan-6-one]
100 | O=C1NC2(CO1)CN(C(=O)[C@H]1C[C@H](OCc3ccc(Cl)cc3Cl)C1)C2 [Example 348, 2-((trans-3-((2,4-dichlorobenzyl)oxy)cyclobutyl)carbonyl)-7-oxa-2,5-diazaspiro[3.4]octan-6-one]
101 | O=C1NC2(CO1)CN(C(=O)c1sc3cc(OC(F)(F)F)cc(Cl)c3c1Cl)C2 [Example 293, 2-((3,4-dichloro-6-(trifluoromethoxy)-1-benzothiophen-2-yl)carbonyl)-7-oxa-2,5-diazaspiro[3.4]octan-6-one]
101 | COC(=O)c1cccc(-c2ccc(CC3CCN(C(=O)N4CC5(CCC(=O)N5)C4)CC3)cc2)c1 [Example 110, methyl 4′-((1-((6-oxo-2,5-diazaspiro[3.4]oct-2-yl)carbonyl)piperidin-4-yl)methyl)biphenyl-3-carboxylate]
100 | O=C1NC2(CO1)CN(C(=O)c1sc3cc(Br)cc(F)c3c1Cl)C2 [Example 285, 2-((6-bromo-3-chloro-4-fluoro-1-benzothiophen-2-yl)carbonyl)-7-oxa-2,5-diazaspiro[3.4]octan-6-one]
94 | Cc1ccc(Cl)c(-c2ccc(C(=O)N3CC4(CCC(=O)N4)C3)cc2)c1 [Example 81, 2-((2′-chloro-5′-methylbiphenyl-4-yl)carbonyl)-2,5-diazaspiro[3.4]octan-6-one]
100 | Cc1c(OC(F)(F)F)ccc2c(Cl)c(C(=O)N3CCC4(COC(=O)N4)C3)sc12 (stereo not drawn) [Example 329, 7-((3-chloro-7-methyl-6-(trifluoromethoxy)-1-benzothiophen-2-yl)carbonyl)-3-oxa-1,7-diazaspiro[4.4]nonan-2-one]
95 | O=C1CCC2(CN(C(=O)c3ccc(-c4ccccc4OC(F)(F)F)cc3)C2)N1 [Example 62, 2-((2′-(trifluoromethoxy)biphenyl-4-yl)carbonyl)-2,5-diazaspiro[3.4]octan-6-one]
98 | Cc1ccc(-c2ccc(C(=O)N3CC4(CCC(=O)N4)C3)cc2)c(C)c1 [Example 88, 2-((2′,4′-dimethylbiphenyl-4-yl)carbonyl)-2,5-diazaspiro[3.4]octan-6-one]
100 | Cc1cc(C(F)(F)F)cc2sc(C(=O)N3CCC4(COC(=O)N4)C3)c(Cl)c12 (stereo not drawn) [Example 341, 7-((3-chloro-4-methyl-6-(trifluoromethyl)-1-benzothiophen-2-yl)carbonyl)-3-oxa-1,7-diazaspiro[4.4]nonan-2-one]
100 | O=C1CCC2(CN(C(=O)c3ccc(-c4csc5ccccc45)cc3)C2)N1 [Example 67, 2-(4-(1-benzothiophen-3-yl)benzoyl)-2,5-diazaspiro[3.4]octan-6-one]

Continued, compound first:

SMILES | inhibition at 10 µM [%]
O=C1CCC2(CN(C(=O)c3ccc(-c4cccc(C(F)(F)F)c4)c(OC(F)(F)F)c3)C2)N1 [Example 132, 2-((2-(trifluoromethoxy)-3′-(trifluoromethyl)biphenyl-4-yl)carbonyl)-2,5-diazaspiro[3.4]octan-6-one] | 99
O=C1CCC2(CN(C(=O)c3sc4cc(-c5cc(F)ccc5Cl)ccc4c3Cl)C2)N1 [Example 223, 2-((3-chloro-6-(2-chloro-5-fluorophenyl)-1-benzothiophen-2-yl)carbonyl)-2,5-diaspiro[3.4]octan-6-one] | 100
O=C1NC2(CO1)CN(C(=O)[C@H]1C[C@H](OCc3ccc(C(F)(F)F)cc3F)C1)C2 [Example 354, 2-((trans-3-((2-fluoro-4-(trifluoromethyl)benzyl)oxy)cyclobutyl)carbonyl)-7-oxa-2,5-diazaspiro[3.4]octan-6-one] | 100
Cc1cc(OC(F)(F)F)cc2sc(C(=O)N3CC4(COC(=O)N4)C3)c(Cl)c12 [Example 296, 2-((3-chloro-4-methyl-6-(trifluoromethoxy)-1-benzothiophen-2-yl)carbonyl)-7-oxa-2,5-diazaspiro[3.4]octan-6-one] | 101
O=C1CCC2(CN(C(=O)N3CCC(Cc4ccc(Cl)cc4)CC3)C2)N1 [Example 99, 2-((4-(4-chlorobenzyl)piperidin-1-yl)carbonyl)-2,5-diazaspiro[3.4]octan-6-one] | 100
O=C1CCC2(CN(C(=O)N3CCC(Cc4ccc(F)cc4F)CC3)C2)N1 [Example 98, 2-((4-(2,4-difluorobenzyl)piperidin-1-yl)carbonyl)-2,5-diazaspiro[3.4]octan-6-one] | 101
O=C1NC2(CO1)CN(C(=O)c1sc3cc(F)ccc3c1Cl)C2 [Example 361, 2-((3-chloro-6-fluoro-1-benzothiophen-2-yl)carbonyl)-7-oxa-2,5-diazaspiro[3.4]octan-6-one] | 99
O=C1COCC2(CCN(C(=O)c3sc4cc(OC(F)(F)F)ccc4c3Cl)C2)N1 (stereo not drawn) [Example 273, 2-((3-chloro-6-(trifluoromethoxy)-1-benzothiophen-2-yl)carbonyl)-9-oxa-2,6-diazaspiro[4.5]decan-7-one] | 100
O=C1CCC2(CN(C(=O)c3cc4ccc(OCc5ccc(Cl)cc5Cl)cc4s3)C2)N1 [Example 145, 2-((6-((2,4-dichlorobenzyl)oxy)-1-benzothiophen-2-yl)carbonyl)-2,5-diazaspiro[3.4]octan-6-one] | 87
O=C1CCC2(CN(C(=O)c3cc4ccc(Cl)cc4s3)C2)N1 [Example 147, 2-((6-chloro-1-benzothiophen-2-yl)carbonyl)-2,5-diazaspiro[3.4]octan-6-one] | 83
O=C1CCC2(CN(C(=O)[C@H]3C[C@H](COc4ccc(F)cc4Cl)C3)C2)N1 [Example 26, 2-((trans-3-((2-chloro-4-fluorophenoxy)methyl)cyclobutyl)carbonyl)-2,5-diazaspiro[3.4]octan-6-one] | 98
O=C1NC2(CO1)CN(C(=O)c1sc3c(C(F)(F)F)cccc3c1OCC(F)(F)F)C2 [Example 271, 2-((3-(2,2,2-trifluoroethoxy)-7-(trifluoromethyl)-1-benzothiophen-2-yl)carbonyl)-7-oxa-2,5-diazaspiro[3.4]octan-6-one] | 100
O=C1CCC2(CN(C(=O)c3sc4cc(-c5cc(F)cc(F)c5)ccc4c3Cl)C2)N1 [Example 214, 2-((3-chloro-6-(3,5-difluorophenyl)-1-benzothiophen-2-yl)carbonyl)-2,5-diazaspiro[3.4]octan-6-one] | 99
COc1ccc2c(Cl)c(C(=O)N3CC4(CCC(=O)N4)C3)sc2c1 [Example 139, 2-((3-chloro-6-methoxy-1-benzothiophen-2-yl)carbonyl)-2,5-diazaspiro[3.4]octan-6-one] | 99
O=C1CCC2(CN(C(=O)N3CCC(C(F)(F)c4ccc(Cl)cc4Cl)CC3)C2)N1 [Example 244, 2-((4-((2,4-dichlorophenyl)(difluoro)methyl)piperidin-1-yl)carbonyl)-2,5-diazaspiro[3.4]octan-6-one] | 100
O=C1NC2(CO1)CN(C(=O)c1sc3cc(C(F)F)cc(C(F)(F)F)c3c1Cl)C2 [Example 291, 2-((3-chloro-6-(difluoromethyl)-4-(trifluoromethyl)-1-benzothiophen-2-yl)carbonyl)-7-oxa-2,5-diazaspiro[3.4]octan-6-one] | 101
